Experimental findings from patent US20150050219A1, “COLOURED SOLUTION IN PARTICULAR FOR USE IN SURGICAL METHODS FOR THE TREATMENT OF THE BODIES OF HUMANS OR ANIMALS” (BBS S.r.l., priority 2012, published 2015) are described below.

The data set in a line: density at 20° C. Format: physicochemical. The settings on record: temperature of 20° C. How it is done: whilst the dye is defined by the formula (V) and is present in a weight ratio of 0.008% to the solvent. In particular, with the solvent consisting of perfluorooctane (VI), the solution has an absorbance equal to 1,403 at a wavelength of 580 nm. Said solution also has a density of 1,756 kg/l at a temperature of 20° C. (substantially equal to that of perfluorooctane alone which, at 20° C., is equal to 1,755).

On to `FC(F)(F)C(F)(F)C(F)(F)C(F)(F)C(F)(F)C(F)(F)C(F)(F)C(F)(F)F` [perfluorooctane], for which the density is on record as 1,755 kg/l.
